Data as given in publication PMC12157126, “Saturation kinetics and specificity of transporters for L-arginine and asymmetric dimethylarginine (ADMA) at the blood-brain and blood-CSF barriers” (PLOS One, 2025).
Values joined by “and” are separate entries in the source; they are usually repeats but may differ in a detail not shown here. Identical values can stand only once. Like-named read-outs stand apart in the source and are kept apart here.

Key:
[1] = tested on: blood-brain and blood-CSF barriers; experiment: In situ brain/choroid plexus perfusion with capillary depletion: CNS uptake of [3H]-arginine in absence and presence of transporter inhibitors; type: in vivo, adult male BALB/c mice; conditions: 4 mM BCH or 500 μM α-methyl-D,L-tryptophan; for effect on [3H]-arginine uptake: majority of brain regions sampled
Description: (§1) The in situ brain/choroid plexus perfusion method was performed as previously described and will only be briefly detailed here. […] At the end of the perfusion period a CSF sample was taken from the cisterna magna, the animal was decapitated, the brain removed and samples taken under a Leica S4E L2 stereomicroscope (Leica; Buckinghamshire, UK). […] The circumventricular organs (CVOs) including the choroid plexus, pituitary gland and pineal gland were also sampled. Brain samples were also taken for capillary depletion analysis.
(§2) Both the physiological capillary depletion buffer and dextran solution were maintained at 4 °C to halt any cell metabolism and transport processes, and to reduce any cellular or protein damage due to heat generated from the homogenisation process. The whole brain homogenate was then taken for dextran density centrifugation (5,400 x g) and 4 °C to produce an endothelial cell-enriched pellet and supernatant containing brain parenchyma.
(§3) The transporter proteins these inhibitors target are listed in S1 Table in S1 File.
(§4) % change=RTissue−RInhibition /RTissue× 100 (2)

[2] = tested on: blood-brain and blood-CSF barriers; experiment: In situ brain/choroid plexus perfusion with capillary depletion: CNS uptake of [3H]-ADMA in absence and presence of transporter inhibitors; conditions: for % inhibition of [3H]-ADMA uptake: L-homoarginine 20 mM, BCH 4 mM, L-phenylalanine 200 μM, L-leucine 5 mM, harmaline 2 mM; for RBrain, [3H]-ADMA alone: 10 min perfusion, mean±SEM; for RBrain, [3H]-ADMA alone / uptake of [3H]-ADMA: [14C]-sucrose corrected; for uptake of [3H]-ADMA: S14 Fig
Description: as §1, §2, §3, §4

[3] = tested on: blood-brain and blood-CSF barriers; experiment: Self-inhibition experiments: [3H]-ADMA uptake with 0.5-500 μM unlabelled ADMA and kinetic constants (Km, Vmax, Kd); type: in vivo, adult male BALB/c mice; conditions: for Km: read-out: Km (half-saturation constant) of [3H]-ADMA influx
Description: At the end of the perfusion period a CSF sample was taken from the cisterna magna, the animal was decapitated, the brain removed and samples taken under a Leica S4E L2 stereomicroscope (Leica; Buckinghamshire, UK). The samples included the frontal cortex, caudate nucleus, occipital cortex, hippocampus, hypothalamus, thalamus, pons and cerebellum. The circumventricular organs (CVOs) including the choroid plexus, pituitary gland and pineal gland were also sampled. Brain samples were also taken for capillary depletion analysis.
A series of single-time point experiments involved varying the unlabelled concentration of ADMA in the artificial plasma and measuring the [^3H]-ADMA uptake into the brain regions, capillary depletion samples, CVOs and CSF after 10 min of perfusion. […] This enabled calculation of the kinetic constants; Vmax (the maximal influx rate of the saturable component), Km (the half-saturation constant) and Kd (the constant of non-saturable diffusion).
In the case where the uptake of the radiolabelled test amino acid is examined in the presence of various unlabelled concentrations of the same test solute, Kin, can be defined as in equation 4:
Kin= Vmax/Km+ Cpl+ Kd (5)
Unidirectional ADMA flux (Jin) into the brain (nmol.min^-1.g^-1) and CSF (nmol.min^-1.ml^-1) was determined using equations 6 and 7:
Jin=VmaxCpl/Km+ Cpl+ KdCpl (8)
This constant of non-saturable diffusion was then used to calculate a non-saturable flux which could be subtracted from the total flux to determine the saturable flux. […] In some cases, there was no measurable non-saturable component and so estimates of Vmax and Km were obtained from plots of total flux, which was equal to the saturable flux.

[4] = CSF, choroid plexus and pituitary gland
[5] = homogenate, supernatant, pellet
[6] = brain and choroid plexus (up to), system B0,+ inhibitors
[7] = brain homogenate or supernatant
[8] = caudate nucleus, α-methyl-D,L-tryptophan 500 μM
[9] = occipital cortex, α-methyl-D,L-tryptophan 500 μM
[10] = pineal gland, α-methyl-D,L-tryptophan 500 μM

## CC(N)(Cc1c[nH]c2ccccc12)C(=O)O (racemic) [α-methyl-D,L-tryptophan, reference compound]
[1]; [4]
  effect on [3H]-arginine distribution: no statistically significant effect
[1]; [5]
  effect on [3H]-arginine distribution: no significant effect
[1]
  effect on [3H]-arginine uptake: did not significantly affect
[2]; [6]
  inhibition of [3H]-ADMA uptake: up to 50.0%
[2]; [7]
  effect on [3H]-ADMA uptake: did not significantly affect
[2]; [8]
  % inhibition of [3H]-ADMA uptake: 49.1%
[2]; frontal cortex, α-methyl-D,L-tryptophan 500 μM
  % inhibition of [3H]-ADMA uptake: 48.0%
[2]; [9]
  % inhibition of [3H]-ADMA uptake: 45.5%
[2]; [10]
  % inhibition of [3H]-ADMA uptake: 80.6%

## NC1(C(=O)O)CC2CCC1C2 (stereo not drawn) [BCH, 2-amino-endo-bicyclo[2.2.1]heptane-2-carboxylic acid, reference compound]
[1]; [4]
  effect on [3H]-arginine distribution: no statistically significant effect
[1]; [5]
  effect on [3H]-arginine distribution: no significant effect
[1]
  effect on [3H]-arginine uptake: did not significantly affect
[2]; [6]
  inhibition of [3H]-ADMA uptake: up to 50.0%
[2]; [7]
  effect on [3H]-ADMA uptake: did not significantly affect
[2]; [8]
  % inhibition of [3H]-ADMA uptake: 37.5%
[2]; choroid plexus
  % inhibition of [3H]-ADMA uptake: 50.0%
[2]; hippocampus, α-methyl-D,L-tryptophan 500 μM
  % inhibition of [3H]-ADMA uptake: 36.6%
[2]; hypothalamus, α-methyl-D,L-tryptophan 500 μM
  % inhibition of [3H]-ADMA uptake: 36.8%
[2]; [9]
  % inhibition of [3H]-ADMA uptake: 34.2%
[2]; [10]
  % inhibition of [3H]-ADMA uptake: 65.6%
[2]; pituitary gland
  % inhibition of [3H]-ADMA uptake: 61.5%

## COc1ccc2c3c([nH]c2c1)C(C)=NCC3 [Harmaline, harmaline, reference compound]
[2]; brain and choroid plexus
  effect on [3H]-ADMA uptake: significantly inhibited
[2]; [7]
  effect on [3H]-ADMA uptake: did not significantly affect

## N[C@@H](Cc1ccccc1)C(=O)O [L-phenylalanine, reference compound]
[2]; phenylalanine, some regions of the brain and the choroid plexus (up to)
  inhibition of [3H]-ADMA uptake: up to 66.4%

## CN(C)C(N)=NCCC[C@H](N)C(=O)O [[^3H]-ADMA, asymmetric dimethylarginine]
[2]; 10 minutes
  uptake into pellet, times lower than into choroid plexus: 124.2 times
[2]; CSF
  RBrain, [3H]-ADMA alone: 26.72±8.84 ml.100g^-1
[2]; caudate nucleus
  RBrain, [3H]-ADMA alone: 24.07±2.92 ml.100g^-1
[2]; cerebellum
  RBrain, [3H]-ADMA alone: 17.65±1.52 (n=4) ml.100g^-1
[2]; choroid plexus
  RBrain, [3H]-ADMA alone: 260.9±42.45 ml.100g^-1
[2]; choroid plexus, 10 minutes
  uptake of [3H]-ADMA: 260.85 ± 42.45 ml.100g^-1
[2]; frontal cortex
  RBrain, [3H]-ADMA alone: 24.94±3.50 ml.100g^-1
[2]; frontal cortex, 10 minutes
  uptake of [3H]-ADMA: 24.94 ± 3.50 ml.100g^-1
[2]; hippocampus
  RBrain, [3H]-ADMA alone: 21.74±1.75 ml.100g^-1
[2]; homogenate (capillary depletion)
  RBrain, [3H]-ADMA alone: 17.70±3.10 (n=4) ml.100g^-1
[2]; hypothalamus
  RBrain, [3H]-ADMA alone: 30.42 ± 2.98 ml.100g^-1
[2]; occipital cortex
  RBrain, [3H]-ADMA alone: 22.52±1.65 ml.100g^-1
[2]; pellet (capillary depletion)
  RBrain, [3H]-ADMA alone: 2.62±0.88 (n=4) ml.100g^-1
[2]; pineal gland
  RBrain, [3H]-ADMA alone: 194.1±48.46 ml.100g^-1
[2]; pituitary gland
  RBrain, [3H]-ADMA alone: 182.9±32.28 ml.100g^-1
[2]; pons
  RBrain, [3H]-ADMA alone: 24.64±3.44 ml.100g^-1
[2]; supernatant (capillary depletion)
  RBrain, [3H]-ADMA alone: 10.03 ± 1.06 (n=4) ml.100g^-1
[2]; thalamus
  RBrain, [3H]-ADMA alone: 21.09±1.74 ml.100g^-1
[3]; CSF
  non-saturable component of [3H]-ADMA flux: no non-saturable component
[3]; CSF, from total flux
  Vmax (maximal influx rate of the saturable component) of [3H]-ADMA: 2.07 ± 0.38 nmol/min/g and 2.067 ± 0.38 nmol/min/g
  Km: 30.6 ± 25.4 µM
[3]; caudate nucleus
  Kd (constant of non-saturable diffusion) of [3H]-ADMA: 2.82 µL/min/g
  Vmax (maximal influx rate of the saturable component) of [3H]-ADMA: 0.423 ± 0.061 nmol/min/g
[3]; caudate nucleus, saturable flux, sucrose space increased at 500 µM ADMA
  Km: 25.2 ± 16.6 µM
[3]; cerebellum
  Kd (constant of non-saturable diffusion) of [3H]-ADMA: 5.20 µL/min/g
  Vmax (maximal influx rate of the saturable component) of [3H]-ADMA: 0.235 ± 0.011 nmol/min/g
[3]; cerebellum, saturable flux, sucrose space increased at 500 µM ADMA
  Km: 24.7 ± 5.32 µM
[3]; choroid plexuses, pituitary gland and pineal gland, 10 minutes
  RTissue: > 100%
[3]; frontal cortex
  Vmax (maximal influx rate of the saturable component) of [3H]-ADMA: 0.307 ± 0.017 nmol/min/g
[3]; frontal cortex, saturable flux
  Km: 29.1 ± 7.19 µM
[3]; frontal cortex, slope of total flux at 100 and 500 μM
  Kd (constant of non-saturable diffusion) of [3H]-ADMA: 4.40 µL/min/g
[3]; hippocampus
  Kd (constant of non-saturable diffusion) of [3H]-ADMA: 3.23 µL/min/g
  Vmax (maximal influx rate of the saturable component) of [3H]-ADMA: 0.24 ± 0.02 nmol/min/g
[3]; hippocampus, saturable flux, sucrose space increased at 500 µM ADMA
  Km: 15.8 ± 6.86 µM
[3]; homogenate
  Kd (constant of non-saturable diffusion) of [3H]-ADMA: 3.34 µL/min/g
  Vmax (maximal influx rate of the saturable component) of [3H]-ADMA: 0.155 ± 0.013 nmol/min/g
[3]; homogenate, saturable flux
  Km: 13.6 ± 5.26 µM
[3]; hypothalamus
  Kd (constant of non-saturable diffusion) of [3H]-ADMA: 5.18 µL/min/g
  Vmax (maximal influx rate of the saturable component) of [3H]-ADMA: 0.482 ± 0.049 nmol/min/g
[3]; hypothalamus, saturable flux
  Km: 23.2 ± 10.8 µM
[3]; occipital cortex
  Kd (constant of non-saturable diffusion) of [3H]-ADMA: 4.65 µL/min/g
  Vmax (maximal influx rate of the saturable component) of [3H]-ADMA: 0.321 ± 0.034 nmol/min/g
[3]; occipital cortex, saturable flux, sucrose space increased at 500 µM ADMA
  Km: 25.9 ± 12.6 µM
[3]; pellet
  Kd (constant of non-saturable diffusion) of [3H]-ADMA: 0.38 µL/min/g
  Vmax (maximal influx rate of the saturable component) of [3H]-ADMA: 0.071 ± 0.008 nmol/min/g
[3]; pellet, saturable flux
  Km: 34 ± 16.8 µM
[3]; pons
  Kd (constant of non-saturable diffusion) of [3H]-ADMA: 3.62 µL/min/g
  Vmax (maximal influx rate of the saturable component) of [3H]-ADMA: 0.325 ± 0.043 nmol/min/g
[3]; pons, saturable flux, sucrose space increased at 500 µM ADMA
  Km: 18.2 ± 10.8 µM
[3]; supernatant
  Kd (constant of non-saturable diffusion) of [3H]-ADMA: 2.35 µL/min/g
  Vmax (maximal influx rate of the saturable component) of [3H]-ADMA: 0.208 ± 0.036 nmol/min/g
[3]; supernatant, saturable flux
  Km: 68.5 ± 44.4 µM
[3]; thalamus
  Kd (constant of non-saturable diffusion) of [3H]-ADMA: 4.33 µL/min/g
  Vmax (maximal influx rate of the saturable component) of [3H]-ADMA: 0.278 ± 0.033 nmol/min/g
[3]; thalamus, saturable flux, sucrose space increased at 500 µM ADMA
  Km: 18.5 ± 9.89 µM
